Reference: patent publication US10471043B2, “Compounds and methods of treating bacterial infections” (ULTUPHARMA AB, priority 2015, dated 2019)
≈ marks a conversion by molar mass, not a printed value. Where two headings read alike, the source gives them in different places.

Assays:
[1] = tested on: Staphylococcus aureus strain LMG15975; experiment: MIC by broth micro-dilution, AM3/PBS 1:1; type: cell-based
Protocol: (§1) At first (Table 1), MIC is determined by broth micro-dilution method. The test medium is Antibiotic Medium 3 (AM3; Difco Ltd) mixed with Phosphate Buffered Saline (PBS) in proportions 1:1. Selected MIC values are verified using cation-adjusted Mueller Hinton Broth (MHB; BD). Cell concentration of tested pathogen is adjusted to between 3 and 5×10^5 cells per ml. To verify cell concentration of tested pathogen, viable cell counts are performed directly after each MIC-test by dilution method with PBS as a dilution solvent. Cells are counted on the agar plates with 50% strength Vegetable Peptone Broth (50% VPB; Oxoid Ltd) after 16 to 20 h of incubation at 37° C.
(§2) Cells of pathogen suspended in test medium are distributed to the wells and the plates are incubated for 16 to 20 h at 37° C. Negative controls are wells with the test medium only and positive controls are wells with the pathogen in test medium. The MIC is defined as the lowest concentration of each compound with no visible growth of pathogen.
Example compounds of formula I were examined for antibacterial activity against the Gram-positive bacterium Staphylococcus aureus strain LMG15975 using the above described method (Table 1).

[2] = tested on: A. baumannii; experiment: MIC by broth micro-dilution; type: cell-based; conditions: A. baumannii (G−), Table 2
Protocol: as §1, §2

[3] = tested on: Bacillus cereus; experiment: MIC by broth micro-dilution; type: cell-based; conditions: Table 4, read-out: MIC (μg/ml) B. cereus
Protocol: as §1, §2

[4] = tested on: M. frederiksbergense; experiment: MIC by broth micro-dilution; type: cell-based; conditions: Table 4; read-out: MIC (μg/ml) M. frederiksbergense
Protocol: as §1, §2

[5] = tested on: mupirocin-resistant strains of Staphylococcus aureus; experiment: MIC against mupirocin-resistant strains; type: cell-based; conditions: Staphylococcus aureus; S. aureus V55, mupirocin-resistant; read-out: MIC
Protocol: as §1, §2

[6] = tested on: S. aureus; experiment: Antimicrobial Susceptibility Test by Broth Microdilution, M07-A9 CLSI; type: cell-based; conditions: Staphylococcus aureus
[7] = tested on: S. epidermidis; experiment: as above; type: cell-based; conditions: Staphylococcus epidermidis
[8] = tested on: E. faecium; experiment: as above; type: cell-based
[9] = tested on: E. faecalis; experiment: as above; type: cell-based; conditions: Enterococcus faecalis
[10] = tested on: S. pyogenes; experiment: as above; type: cell-based; conditions: Streptococcus pyogenes
[11] = tested on: Serratia marescens; experiment: MIC panel of Gram-negative bacteria (Table 7); type: cell-based; conditions: EN0454 Serratia marescens G− PKL 3692
[12] = tested on: Micrococcus luteus; experiment: MIC panel of Gram-negative bacteria (Table 7); type: cell-based; conditions: EN0455 Micrococcus luteus G+ PKL 3693
[13] = tested on: Proteus mirabilis; experiment: MIC panel of Gram-negative bacteria (Table 7); type: cell-based
[14] = tested on: E. coli; experiment: MIC panel of Gram-negative bacteria (Table 7); type: cell-based; conditions: Escherichia coli
[15] = tested on: P. aeruginosa; experiment: MIC panel of Gram-negative bacteria (Table 7); type: cell-based; conditions: Pseudomonas aeruginosa
[16] = tested on: Enterobacter aerogenes; experiment: MIC panel of Gram-negative bacteria (Table 7); type: cell-based; conditions: Klebsiella aerogenes; EN0461 Enterobacter aerogenes G− PKL 3706
[17] = tested on: S. epidermidis; experiment: MIC panel of Gram-negative bacteria (Table 7); type: cell-based; conditions: Staphylococcus epidermidis; EN0456 S. epidermidis G+ PKL 3694
[18] = tested on: S. typhimurium; experiment: MIC panel of Gram-negative bacteria (Table 7); type: cell-based; conditions: Salmonella enterica; EN0466 S. typhimurium G− TH6509
[19] = tested on: A. Pittii/nosocomialis; experiment: MIC panel of Gram-negative bacteria (Table 7); type: cell-based; conditions: Acinetobacter pittii; EN0180 A. Pittii/nosocomialis G−
[20] = tested on: K. pneumoniae; experiment: MIC panel of Gram-negative bacteria (Table 7); type: cell-based; conditions: Klebsiella pneumoniae
[21] = tested on: A. baumanii; experiment: MIC panel of Gram-negative bacteria (Table 7); type: cell-based
[22] = tested on: HepG2 cells; conditions: human, 48 h
[23] = in vitro; conditions: human, CC50 (μg/mL)
[24] = in vitro; conditions: human, Caco-2

CCCCCCCCCC1CC(O)=C(C(=O)CCC)C(=O)O1 (centres unmarked) [Ex. 1, 3-Butyryl-6-nonyl-4-hydroxy-5,6-dihydro-2H-pyran-2-one]
MIC ([1]; LMG15975, S. aureus (G+), Table 2, read-out: MIC (μg/ml) S. aureus): 0.8 µg/mL | MIC ([1]; LMG15975, S. aureus LMG 15975 (SLU), Methicillin-resistant, Table 5, read-out: MIC (μg/mL)): 0.8 µg/mL | MIC ([1]; LMG15975, S. aureus LMG15975, Table 1, read-out: MIC): 2.5 µM | MIC ([1]; LMG15975, S. aureus LMG15975, Table 1, read-out: MIC (μg/ml)): 0.8 µg/mL | MIC ([1]; LMG15975, Table 4, read-out: MIC (μg/ml) S. aureus): 0.8 µg/mL | MIC (μg/ml) A. baumannii [2]: 8 to 16 µg/mL | MIC ([2]; Acinetobacter baumannii, read-out: MIC (μg/ml) A. baumannii): 16 to 24 µg/mL (≈ 51.5 to 77.3 µM) | MIC [3]: ≤ 1 µg/mL | MIC [4]: ≤ 0.5 µg/mL | MIC [5]: ≤ 0.1 µg/mL | MIC ([6]; ATCC29213, S. aureus ATCC29213, QC strain, Table 5): 4 µg/mL (≈ 12.9 µM) | MIC ([6]; ATCC29213, S. aureus ATCC 29213, QC strain, Table 6): 4 µg/mL (≈ 12.9 µM) | MIC ([6]; MRSA, S. aureus PICI, Table 6): 4 µg/mL (≈ 12.9 µM) | MIC ([6]; MSSA, S. aureus MO 17, MSSA, Table 6): 2 µg/mL (≈ 6.44 µM) | MIC ([6]; S. aureus 6 Holland, Macrolide-resistant (M)): 1 µg/mL (≈ 3.22 µM) | MIC ([6]; S. aureus 56 Japan, Macrolide-resistant (MLSi)): 4 µg/mL (≈ 12.9 µM) | MIC ([6]; S. aureus 853E, Macrolide-sensitive): 2 µg/mL (≈ 6.44 µM) | MIC ([6]; S. aureus 4216, Tetracycline-resistant): 2 µg/mL (≈ 6.44 µM) | MIC ([6]; S. aureus 4384 (SSI), Methicillin-resistant): 2 µg/mL (≈ 6.44 µM) | MIC ([6]; S. aureus FR 131, Quinolone-resistant): 2 µg/mL (≈ 6.44 µM) | MIC ([6]; S. aureus MO17, Methicillin-sensitive, Table 5): 2 µg/mL (≈ 6.44 µM) | MIC ([6]; S. aureus PICI, Methicillin-resistant, Table 5): 4 µg/mL (≈ 12.9 µM) | MIC ([6]; S. aureus PK2, Macrolide-resistant (MLSc)): 2 µg/mL (≈ 6.44 µM) | MIC ([7]; MRSE, S. epidermidis TA12, MRSE, Table 6): 2 µg/mL (≈ 6.44 µM) | MIC ([7]; S. epidermidis RO7, MSSE, Table 6): 1 µg/mL (≈ 3.22 µM) | MIC ([7]; S. epidermis RO7, Methicillin-sensitive, Table 5): 1 µg/mL (≈ 3.22 µM) | MIC ([7]; S. epidermis TA12, Methicillin-resistant, Table 5): 2 µg/mL (≈ 6.44 µM) | MIC ([8]; E. faecium E.coc 7, Vancomycin -resistant, Table 6): 2 µg/mL (≈ 6.44 µM) | MIC ([8]; Enterococcus faecium, E. faecium 7, Vancomycin-resistant, Table 5, read-out: MIC): 2 µg/mL (≈ 6.44 µM) | MIC ([9]; E. faecalis E.cocco 12, Vancomycin -resistant): 2 µg/mL (≈ 6.44 µM) | MIC ([9]; E. faecalis E.cocco 24, Vancomycin -sensitive, Table 6): 2 µg/mL (≈ 6.44 µM) | MIC ([9]; E. faecalis 24, Vancomycin-sensitive, Table 5): 2 µg/mL (≈ 6.44 µM) | MIC ([10]; S. pyogenes 2 Finland, Macrolide-resistant (M)): 8 µg/mL (≈ 25.8 µM) | MIC ([10]; S. pyogenes 29A-TF, Macrolide- sensitive): 8 µg/mL (≈ 25.8 µM) | MIC ([10]; S. pyogenes 21 Finland, Macrolide-resistant (MLSc)): 8 µg/mL (≈ 25.8 µM) | MIC [11]: > 64 µg/mL | MIC [12]: 0.5 µg/mL (≈ 1.61 µM) | MIC ([13]; EN0445 P. mirabilis ST19 G−): >64 µg/mL | MIC ([13]; EN0457 Proteus mirabilis G− PKL 3695, read-out: MIC): > 64 µg/mL | MIC ([14]; EN001 E. coli WT, ENABLE Primary MIC panel): > 64 µg/mL | MIC ([14]; EN002 E. coli DtolC, ENABLE Primary MIC panel): 4 µg/mL (≈ 12.9 µM) | MIC ([14]; EN003 E. coli D22 (lps mut), ENABLE Primary MIC panel): > 64 µg/mL | MIC ([14]; EN0012 E. coli, ENABLE L2C MIC panel): > 64 µg/mL | MIC ([14]; EN0013 E. coli Del-tolC, ENABLE L2C MIC panel): 0.5 µg/mL (≈ 1.61 µM) | MIC ([14]; EN0458 E. coli B G− PKL 3698): > 64 µg/mL | MIC ([15]; EN004 P. aeruginosa WT, ENABLE Primary MIC panel): > 64 µg/mL | MIC ([15]; EN005 P. aeruginosa Efflux mut, ENABLE Primary MIC panel): 2 µg/mL (≈ 6.44 µM) | MIC ([15]; EN0014 P. aeruginosa, ENABLE L2C MIC panel): > 64 µg/mL | MIC ([15]; EN0015 P. aeruginosa Efflux mut, ENABLE L2C MIC panel): > 64 µg/mL | MIC ([15]; EN0422 P. aeruginosa G−): > 64 µg/mL | MIC ([15]; EN0459 P. aeruginosa G− PKL 3699): > 64 µg/mL | MIC ([15]; EN0460 P. aeruginosa G− PKL 3704): > 64 µg/mL | MIC [16]: > 64 µg/mL | MIC [17]: 1 µg/mL (≈ 3.22 µM) | MIC [18]: > 64 µg/mL | MIC [19]: > 64 µg/mL | MIC ([20]; EN006 K. pneumoniae WT, ENABLE Primary MIC panel): > 64 µg/mL | MIC ([20]; EN0010 K. pneumoniae, ENABLE L2C MIC panel (isogenic efflux pairs)): > 64 µg/mL | MIC ([20]; EN0011 K. pneumoniae Efflux mut, ENABLE L2C MIC panel): 8 µg/mL (≈ 25.8 µM) | MIC ([21]; Acinetobacter baumannii, EN007 A. baumanii WT, ENABLE Primary MIC panel, read-out: MIC): > 64 µg/mL | MIC ([21]; EN0016 A. baumanii, ENABLE L2C MIC panel): >64 µg/mL | MIC ([21]; EN0017 A. baumanii Efflux mut, ENABLE L2C MIC panel): >64 µg/mL | CC50 [22]: 38 µM | CC50 at 48 h [23]: 33 µM | Papp at 120 min, 10 μM [24]: 53 ×10⁻⁶ cm/s
